According to article PMC5714945, “A homologue of the Parkinson’s disease-associated protein LRRK2 undergoes a monomer-dimer transition during GTP turnover” (Nature Communications, 2017):

Experiments:
CtRoco = molecular target: T1, CtRoco (Chlorobaculum tepidum, UniProt Q8KC98); assay: SEC-SAXS, AUC, negative-stain EM (conformational and oligomeric change); assay type: binding; details: pre-incubated with 1 mM (SAXS, EM), pH 7.5, 5 mM MgCl2
T1 construct: gene CT1526; full length, residues 1-1102, N-terminal His-tag (pProEX), E. coli BL21(DE3); dimer nucleotide-free, monomer/dimer equilibrium with GppNHp
T1 sequence (Q8KC98 1-1102): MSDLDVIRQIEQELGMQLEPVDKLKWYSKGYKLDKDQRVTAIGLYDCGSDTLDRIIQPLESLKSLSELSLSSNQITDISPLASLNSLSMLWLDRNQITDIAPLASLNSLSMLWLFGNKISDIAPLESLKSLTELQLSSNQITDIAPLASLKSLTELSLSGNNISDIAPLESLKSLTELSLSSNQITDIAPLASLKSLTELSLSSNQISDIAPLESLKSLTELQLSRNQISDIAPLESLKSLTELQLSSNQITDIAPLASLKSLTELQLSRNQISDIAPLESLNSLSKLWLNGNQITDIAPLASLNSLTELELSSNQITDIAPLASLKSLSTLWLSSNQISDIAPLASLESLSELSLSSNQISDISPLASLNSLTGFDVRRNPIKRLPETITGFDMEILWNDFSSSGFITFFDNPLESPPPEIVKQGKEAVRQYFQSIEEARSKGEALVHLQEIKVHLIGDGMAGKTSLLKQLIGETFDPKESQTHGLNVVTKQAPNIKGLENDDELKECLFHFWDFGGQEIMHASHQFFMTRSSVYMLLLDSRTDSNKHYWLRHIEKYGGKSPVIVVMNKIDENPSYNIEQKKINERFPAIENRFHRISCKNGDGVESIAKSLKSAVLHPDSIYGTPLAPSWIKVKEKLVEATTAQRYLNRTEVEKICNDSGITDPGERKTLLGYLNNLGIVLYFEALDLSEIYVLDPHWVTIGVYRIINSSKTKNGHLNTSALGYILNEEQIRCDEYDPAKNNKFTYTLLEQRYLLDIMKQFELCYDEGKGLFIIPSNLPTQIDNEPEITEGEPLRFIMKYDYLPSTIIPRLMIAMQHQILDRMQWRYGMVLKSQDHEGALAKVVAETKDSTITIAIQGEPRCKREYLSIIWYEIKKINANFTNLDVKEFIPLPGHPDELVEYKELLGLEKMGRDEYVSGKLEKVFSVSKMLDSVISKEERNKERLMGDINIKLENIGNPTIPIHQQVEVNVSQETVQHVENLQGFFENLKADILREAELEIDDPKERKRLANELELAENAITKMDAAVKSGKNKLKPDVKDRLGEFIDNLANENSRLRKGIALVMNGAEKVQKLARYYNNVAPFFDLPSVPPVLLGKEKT

CtRoc-COR = molecular target: T2, CtRoc-COR (Chlorobaculum tepidum, UniProt Q8KC98); assay: SEC-SAXS (conformational change); assay type: binding; details: pre-incubated with 1 mM, pH 7.5, 5 mM MgCl2
T2 construct: gene CT1526; Roc-COR domains, residues 412-946, N-terminal His-tag (pProEX), E. coli BL21(DE3); dimer nucleotide-free, about 65 kDa monomer
T2 sequence (Q8KC98 412-946): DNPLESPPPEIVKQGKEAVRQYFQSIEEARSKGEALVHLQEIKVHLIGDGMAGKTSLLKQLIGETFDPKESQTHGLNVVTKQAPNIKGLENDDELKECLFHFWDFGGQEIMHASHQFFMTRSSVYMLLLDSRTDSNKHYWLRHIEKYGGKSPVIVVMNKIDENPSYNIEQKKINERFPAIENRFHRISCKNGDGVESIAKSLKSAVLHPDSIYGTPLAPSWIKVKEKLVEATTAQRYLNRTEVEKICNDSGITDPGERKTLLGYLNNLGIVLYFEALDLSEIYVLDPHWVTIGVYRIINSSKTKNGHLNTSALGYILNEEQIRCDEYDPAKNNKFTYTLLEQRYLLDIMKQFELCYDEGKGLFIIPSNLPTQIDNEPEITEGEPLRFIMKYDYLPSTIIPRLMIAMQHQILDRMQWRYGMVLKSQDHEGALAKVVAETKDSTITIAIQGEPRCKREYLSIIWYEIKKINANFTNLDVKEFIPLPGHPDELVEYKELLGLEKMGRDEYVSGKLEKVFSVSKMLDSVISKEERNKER

Nc1nc2c(ncn2[C@@H]2O[C@H](COP(=O)(O)OP(=O)(O)O)[C@@H](O)[C@H]2O)c(=O)[nH]1 [GDP]
SEC-SAXS, AUC, negative-stain EM (conformational and oligomeric change) (CtRoco): conformational changes occur in both the CtRoco GppNHp- and GDP-bound states
SEC-SAXS (conformational change) (CtRoc-COR): when CtRoc-COR is saturated with either GDP or GppNHp conformational changes are taking place
